Patent publication US3947589A (priority 1971, dated 1976)
Where two headings read alike, the source gives them in different places.

Legend:
citrus melanose = assay: inhibitory test against Citrus melanose; assay type: in vivo; conditions: for pest or weed control at 500 ppm: read-out: Preventive value; for Extent of infection: Table 5, untreated 57; for Extent of infection / Extent infection: 500 ppm, about 2-3 weeks after inoculation; for Extent infection: Table 4, untreated 53
Excerpt: Experimental example 3 : inhibitory test against Citrus melanose a. Test plant: shoots of about 3 years grown seedlings of citrus "Onshu" (2 - 4 trees planted in about 20 cm claypot) b. Solution used for test
As control fungicide, "Daisen" [trade (trade name, product of Nihon-NohyakuCo., Ltd., wettable powder containing zinc ethylene bis (dithiocarbamate)]was sprayed at 1000 ppm. c. Inoculum and the method of inoculation
In order to prepare suspension of pycnospores, distilled and sterilized water was poured on the culture twigs with citrus melanose in a test tube. The suspension containing about 200 of pycnospores was prepared under the observation of microscope of 150 magnification and then sprayed inoculation on the test plants treated as above. After inoculation, the test plants were placed in the inoculation box at 27°C and relative humidity of above 95% for about 3 days. Then, they were transferred into the greenhouse. […]
d. The method of inspection
About 2 - 3 weeks after inoculation, the entire leaves of shoots was inspected for the development of disease and the state of infection was evaluated on a scale of 0 to 3 as follows:
1 : 1 -- 50 of disease spots
2 : 51 -- 150 of disease spots
3 : above 151 of disease spots
The extent of infection and the preventive value were calculated according to the following equations (I) and (II), respectively. [formula] wherein n1, n2 and n3 are number of leaves inspected to be the states of infection 1, 2 and 3, respectively and N is the total number of leaves. [formula]

[1] = system: Piricularia oryzae (rice blast); conditions: 500 ppm
[2] = system: Piricularia oryzae (rice blast); assay: whole plant or invertebrate; conditions: Pyricularia oryzae, 48 h, read-out: Preventive value
[3] = system: cucumber downy mildew (Pseudoperonospore cubensis); assay: inhibitory test against cucumber downy mildew; assay type: in vivo; conditions: for pest or weed control at 500 ppm: Cucumis sativus; for Number of leaves infected (outside) / Number of leaves infected (inside): 23rd of May
Description: Experimental example 4 : inhibitory test against cucumber downy mildew
Cucumber seeds (variety "Shinhikari No. A") were planted in seed-beds at the biginning of October, three cucumber seeds being planted per seed-bed, and they were grown in a greenhouse made of vinyl resin. This experiment was performed as three-repeated cultivation.
The test plants treated thus were left to spontaneous infection.

acute oral toxicity test = conditions: in vivo
Excerpt: The results of an acute oral toxicity test of the active ingredient used in the present invention is that its LD50 is about 6 g/kg in the case of N-lauroyl-L-valine. This is an extremely low toxicity.

[4] = Table 5, about 2-3 weeks after inoculation
[5] = Table 4, about 2-3 weeks after inoculation
[6] = Table 6, 500 ppm, four sprays, inside of leaves, read-out: Preventive value (inside)
[7] = Table 6, 500 ppm, four sprays, outside of leaves, read-out: Preventive value (outside)
[8] = Table 6, 500 ppm, four sprays, untreated 12
[9] = Table 6, 500 ppm, four sprays, untreated 22
[10] = Table 1, 50 ml per pot, two days after infection, untreated 33.0
[11] = read-out: Preventive value (inside)
[12] = read-out: Preventive value (outside)
[13] = Table 7, 500 ppm, four sprays, untreated 13
[14] = Table 7, 500 ppm, four sprays, untreated 15
[15] = Table 7, 500 ppm, four sprays, inside of leaves, read-out: Preventive value (inside)
[16] = Table 7, 500 ppm, four sprays, outside of leaves, read-out: Preventive value (outside)

Structure (SMILES)	pest or weed control at 500 ppm [2] [%]	pest or weed control at 500 ppm (citrus melanose; [5]) [%]	Extent infection (citrus melanose) [%]	Number of leaves infected (outside) [3, 8]	Number of leaves infected (inside) [3, 9]	Average number of disease lesions per leaf [1, 10]	further results
CCCCCCCCCCCCCCCCCC(=O)N[C@@H](CCCNC(=N)N)C(=O)OCC [compound 28]	78	–	–	–	–	–	pest or weed control at 500 ppm (citrus melanose; [4]): 73%; Extent of infection (citrus melanose): 15%; Average number of disease lesions per leaf ([1]; Table 2, untreated 34.2): 7.3
CCCCCCCCCCCC(=O)NC(Cc1ccccc1)C(=O)O (centres unmarked) [compound 8]	67	59	22	3	7	11.0	pest or weed control at 500 ppm [3, 6]: 68%; pest or weed control at 500 ppm [3, 7]: 75%
CCCCCCCCCCCCCC(=O)N[C@@H](CCC(=O)O)C(=O)O [compound 20]	70	–	–	–	–	9.9	–
CCCCCCCCCCCCCCCCCC(=O)NCC(=O)O [compound 6]	80	68	17	–	–	6.6	–
CCCCCCCCCCCCCC(=O)N[C@@H](Cc1c[nH]cn1)C(=O)OC [compound 25]	85	–	–	–	–	–	Average number of disease lesions per leaf ([1]; Table 2, untreated 34.2): 5.1
CCCCCCCC/C=C\CCCCCCCC(=O)NCC(=O)O [compound 5]	67	–	–	–	–	11.0	–
CCCCCCCCCCCC(=O)N(C)CC(=O)O [compound 15]	88	–	–	–	–	7.4	–
CCCCCCCCCCCC(=O)N[C@@H](CC(C)C)C(=O)O [compound 13]	73	–	–	7	9	8.9	pest or weed control at 500 ppm [3, 6]: 59%; pest or weed control at 500 ppm [3, 7]: 42%
CCCCCCCCCCCCCCCCCC(=O)NC(C)C(=O)O (centres unmarked) [compound 7]	82	–	–	5	8	5.9	pest or weed control at 500 ppm [3, 6]: 64%; pest or weed control at 500 ppm [3, 7]: 58%
CCCCCCCCCCCC(=O)N[C@@H](CCCNC(N)=O)C(=O)OC [compound 26]	82	–	–	–	–	–	Average number of disease lesions per leaf ([1]; Table 2, untreated 34.2): 6.2
CCCCCCCCCCCCCCCCCC(=O)N[C@@H](Cc1ccccc1)C(=O)O [compound 4]	78	60	21	7	10	7.3	pest or weed control at 500 ppm [3, 11]: 47%; pest or weed control at 500 ppm [3, 12]: 42%
CCCCCCCCCCCC(=O)N[C@H](C(=O)O)C(C)C [No. 2, N-lauroyl-L-valine]	–	–	–	–	–	–	LD50 (acute oral toxicity test): ~6000 mg/kg
CCCCCCCCCCCC(=O)NC(Cc1ccc([N+](=O)[O-])cc1)C(=O)O (centres unmarked) [compound 3]	73	50	26	6	9	8.9	pest or weed control at 500 ppm [3, 6]: 59%; pest or weed control at 500 ppm [3, 7]: 50%
C=CCCCCCCCCC(=O)N[C@@H](CC(C)C)C(=O)O [compound 14]	83	65	19	–	–	5.6	–
CCCCCCCCCCCC(=O)N[C@H](C(=O)O)[C@@H](C)O [compound 11]	77	–	–	–	–	7.6	–
CCCCCCCCCCCC(=O)NCC(=O)O [compound 1]	95	72	15	4	6	1.7	pest or weed control at 500 ppm [3, 6]: 73%; pest or weed control at 500 ppm [3, 7]: 67%
CCCCCCCCCCCC(=O)N[C@H](C(=O)OCC)C(C)C [compound 19]	78	–	–	–	–	7.3	–
CCCCCCCCCCCC(=O)N[C@H](C(=O)O)C(C)C [compound 2]	80	–	–	–	–	6.6	–
CCCCCCCCCCCCCC(=O)NCC(=O)O [compound 9]	70	–	–	7	9	9.9	pest or weed control at 500 ppm [3, 6]: 59%; pest or weed control at 500 ppm [3, 7]: 42%
CCCCCCCCCCCCCC(=O)N[C@@H](CCCNC(=N)N)C(=O)OCC [compound 21]	75	–	–	–	–	–	pest or weed control at 500 ppm (citrus melanose; [4]): 73%; Extent of infection (citrus melanose): 15%; pest or weed control at 500 ppm [3, 11]: 47%; pest or weed control at 500 ppm [3, 12]: 55%; Number of leaves infected (outside) [3, 13]: 5; Number of leaves infected (inside) [3, 14]: 8; Average number of disease lesions per leaf ([1]; Table 2, untreated 34.2): 8.5
CCCCCCCCCC(=O)N[C@@H](Cc1ccccc1)C(=O)O [compound 12]	65	–	–	4	6	11.6	pest or weed control at 500 ppm [3, 6]: 73%; pest or weed control at 500 ppm [3, 7]: 67%
CCCCCCCCCCCCCC(=O)N[C@@H](CCCCN)C(=O)OC [compound 23]	82	–	–	–	–	–	pest or weed control at 500 ppm (citrus melanose; [4]): 64%; Extent of infection (citrus melanose): 21%; pest or weed control at 500 ppm [3, 15]: 47%; pest or weed control at 500 ppm [3, 16]: 45%; Number of leaves infected (outside) [3, 13]: 7; Number of leaves infected (inside) [3, 14]: 8; Average number of disease lesions per leaf ([1]; Table 2, untreated 34.2): 6.2
CCCCCCCCCCCC(=O)N[C@@H](CC(=O)O)C(=O)O [compound 10]	65	74	14	–	–	11.6	–
CCCCCCCCCCCC(=O)N[C@@H](CCCNC(=N)N)C(=O)OCC [compound 27]	80	–	–	–	–	–	pest or weed control at 500 ppm (citrus melanose; [4]): 75%; Extent of infection (citrus melanose): 14%; pest or weed control at 500 ppm [3, 15]: 40%; pest or weed control at 500 ppm [3, 16]: 52%; Number of leaves infected (outside) [3, 13]: 6; Number of leaves infected (inside) [3, 14]: 9; Average number of disease lesions per leaf ([1]; Table 2, untreated 34.2): 6.8
CCCCCCCCCC(=O)NC(CCSC)C(=O)O (centres unmarked) [compound 16]	67	54	24	–	–	11.0	–
CCCCCCCCCCCC(=O)N[C@@H](CCCN)C(=O)OC [compound 24]	78	–	–	–	–	–	pest or weed control at 500 ppm (citrus melanose; [4]): 68%; Extent of infection (citrus melanose): 18%; pest or weed control at 500 ppm [3, 15]: 47%; pest or weed control at 500 ppm [3, 16]: 52%; Number of leaves infected (outside) [3, 13]: 6; Number of leaves infected (inside) [3, 14]: 8; Average number of disease lesions per leaf ([1]; Table 2, untreated 34.2): 7.3
